Reference: patent publication US10894807B2 (Siemens Medical Solutions USA, Inc., priority 2011, dated 2021)

Target: human PSMA (Homo sapiens (Human), UniProt Q04609)
Assay: Enzymatic assay for in vitro evaluation of PSMA inhibitors (fluorescent assay of PSMA activity, NAAG substrate, OPA detection of glutamate)
Type: biochemical

Chain of human PSMA (Q04609 whole entry): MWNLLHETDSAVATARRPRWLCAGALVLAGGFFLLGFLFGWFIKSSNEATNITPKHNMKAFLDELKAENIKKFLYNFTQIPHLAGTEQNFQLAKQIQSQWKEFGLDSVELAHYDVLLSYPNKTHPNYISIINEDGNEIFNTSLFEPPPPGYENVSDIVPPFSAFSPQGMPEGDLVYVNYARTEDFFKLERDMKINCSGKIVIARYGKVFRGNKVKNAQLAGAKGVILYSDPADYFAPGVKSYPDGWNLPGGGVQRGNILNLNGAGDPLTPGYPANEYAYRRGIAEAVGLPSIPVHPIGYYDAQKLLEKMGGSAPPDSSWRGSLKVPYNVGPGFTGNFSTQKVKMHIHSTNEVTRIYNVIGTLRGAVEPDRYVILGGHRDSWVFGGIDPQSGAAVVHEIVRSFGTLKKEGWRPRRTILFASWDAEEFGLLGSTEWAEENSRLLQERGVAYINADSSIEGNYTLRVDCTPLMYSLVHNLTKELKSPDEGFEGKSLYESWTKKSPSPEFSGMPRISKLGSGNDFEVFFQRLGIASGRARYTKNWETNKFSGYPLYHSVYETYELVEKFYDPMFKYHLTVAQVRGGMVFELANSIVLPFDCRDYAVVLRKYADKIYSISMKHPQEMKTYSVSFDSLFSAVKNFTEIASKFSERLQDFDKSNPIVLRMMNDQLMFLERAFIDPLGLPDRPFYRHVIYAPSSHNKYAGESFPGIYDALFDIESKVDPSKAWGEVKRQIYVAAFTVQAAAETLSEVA

Structure (SMILES) | PSMA Blkg % (1.0 μM) | Ki
O=C(O)CCC(CP(=O)(O)OCCC1CCN(C(=O)CCc2ccc(-n3cc(CCCF)nn3)cc2)CC1)C(=O)O (centres unmarked) [P225, 2-(((2-(1-(3-(4-(4-(3-Fluoropropyl)-1H-1,2,3-triazol-1-yl)phenyl)propanoyl)piperidin-4-yl)ethoxy)(hydroxy)phosphoryl)methyl)pentanedioic Acid] | 7% | 
O=C(O)CCC(CP(=O)(O)OCC1CCN(C(=O)CCCc2ccc(-n3cc(CCCF)nn3)cc2)CC1)C(=O)O (centres unmarked) [P226, 2-((((1-(4-(4-(4-(3-Fluoropropyl)-1H-1,2,3-triazol-1-yl)phenyl)butanoyl)piperidin-4-yl)methoxy)(hydroxy)phosphoryl)methyl)pentanedioic Acid] | 32% | 
O=C(O)CCC(CP(=O)(O)OCCC1CCN(C(=O)c2ccc(-n3cc(CCCF)nn3)cc2)CC1)C(=O)O (centres unmarked) [P227, 2-(((2-(1-(4-(4-(3-Fluoropropyl)-1H-1,2,3-triazol-1-yl)benzoyl)piperidin-4-yl)ethoxy)(hydroxy)phosphoryl)methyl)pentanedioic Acid] | 15% | 
O=C(O)CC[C@H](NC(=O)C[C@@H](NC(=O)Cn1cc(CCCF)nn1)C(=O)O)C(=O)O [P228, (S)-2-((R)-3-Carboxy-3-(2-(4-(3-fluoropropyl)-1H-1,2,3-triazol-1-yl)acetamido)propanamido)-pentanedioic Acid] | 24% | 
O=C(O)CC[C@H](NC(=O)C[C@@H](NC(=O)N1CCN(C(=O)OCc2ccccc2)CC1)C(=O)O)C(=O)O [P229, (S)-2-((R)-3-(4-((Benzyloxy)carbonyl)piperazine-1-carboxamido)-3-carboxypropanamido)-pentanedioic Acid] | 25% | 
O=C(O)CC[C@H](NC(=O)NC(CC1CCN(C(=O)CCCc2ccc(-n3cc(CCCF)nn3)cc2)CC1)C(=O)O)C(=O)O (stereo partly drawn) [P230, (2S)-2-(3-(1-Carboxy-2-(1-(4-(4-(4-(3-fluoropropyl)-1H-1,2,3-triazol-1-yl)phenyl)butanoyl)-piperidin-4-yl)ethyl)ureido)pentanedioic Acid] | 95% | 13 nM
O=C(O)CCC(C(=O)O)N1C(=O)N[C@@H](CC2CCN(C(=O)CCCc3ccc(-n4cc(CCCF)nn4)cc3)CC2)C1=O (some centres unmarked) [P231] | 63% | 
O=C(O)CC[C@H](NC(=O)N[C@@H](CCCCNc1nc(-c2ccc(F)cc2)cs1)C(=O)O)C(=O)O [P232, (S)-2-(3-((S)-1-Carboxy-5-(4-(4-fluorophenyl)thiazol-2-ylamino)pentyl)ureido)pentanedioic Acid] | 96% | 
O=C(O)CC[C@H](NC(=O)N[C@@H](CCCCNc1nc(-c2cccc([N+](=O)[O-])c2)cs1)C(=O)O)C(=O)O [P233, (S)-2-(3-((S)-1-Carboxy-5-(4-(3-nitrophenyl)thiazol-2-ylamino)pentyl)ureido)pentanedioic Acid] | 96% | 
O=C(O)CC[C@H](NC(=O)N[C@@H](CCCCNc1nc(-c2cc3ccccc3s2)cs1)C(=O)O)C(=O)O [P234, (S)-2-(3-((S)-5-(4-(Benzo[b]thiophen-2-yl)thiazol-2-ylamino)-1-carboxypentyl)ureido) pentanedioic Acid] | 86% | 
O=C(O)CC[C@H](NC(=O)N[C@@H](CCCCNc1nc(-c2ccc3c(c2)OCO3)cs1)C(=O)O)C(=O)O [P235, (S)-2-(3-((S)-5-(4-(Benzo[d][1,3]dioxol-5-yl)thiazol-2-ylamino)-1-carboxypentyl)ureido)-pentanedioic Acid] | 100% | < 0.3 nM
O=C(O)CC[C@H](NC(=O)N[C@@H](CCCCNc1nc(-c2ccnc(Cl)c2)cs1)C(=O)O)C(=O)O [P236, (S)-2-(3-((S)-1-Carboxy-5-(4-(2-chloropyridin-4-yl)thiazol-2-ylamino)pentyl)ureido)-pentanedioic Acid] | 99% | 
O=C(O)CC[C@H](NC(=O)N[C@@H](Cc1ccc(NC(=O)N2CCN(C(=O)Cn3cc(CCCF)nn3)CC2)cc1)C(=O)O)C(=O)O [P237, (S)-2-(3-((S)-1-Carboxy-2-(4-(4-(2-(4-(3-fluoropropyl)-1H-1,2,3-triazol-1-yl)acetyl)piperazine-1-carboxamido)phenyl)ethyl)ureido)pentanedioic Acid] | 100% | 3.8 nM
O=C(O)CC[C@H](NC(=O)N[C@@H](Cc1ccc(NC(=O)c2cc(C(=O)Nc3ccc(C[C@H](NC(=O)N[C@@H](CCC(=O)O)C(=O)O)C(=O)O)cc3)cc(-n3cc(CCCF)nn3)c2)cc1)C(=O)O)C(=O)O [P238, (2S,2′S)-2,2′-(((((1S,1′S)-(((5-(4-(3-Fluoropropyl)-1H-1,2,3-triazol-1-yl)isophthaloyl)bis(azanediyl))bis(4,1-phenylene))bis(1-carboxyethane-2,1-diyl))bis(azanediyl))bis(carbonyl))bis(azanediyl))dipentanedioic Acid] | 100% | < 0.3 nM
O=C(O)CC[C@H](NC(=O)C[C@@H](NC(=O)CCNC(=O)OCc1ccccc1)C(=O)O)C(=O)O [P239, (9R,13S)-3,7,11-Trioxo-1-phenyl-2-oxa-4,8,12-triazapentadecane-9,13,15-tricarboxylic Acid] | 33% | 
O=C(O)CCC(NC(=O)C[C@@H](NC(=O)CCNC(=O)c1cc(C(=O)NCCC(=O)N[C@H](CC(=O)NC(CCC(=O)O)C(=O)O)C(=O)O)cc(-n2cc(CCCF)nn2)c1)C(=O)O)C(=O)O (stereo partly drawn) [P252, (2S,2′S)-2,2′-(((3R,3′R)-3,3′-((3,3′-((5-(4-(3-Fluoropropyl)-1H-1,2,3-triazol-1-yl)isophthaloyl)bis(azanediyl))bis(propanoyl))bis(azanediyl))bis(3-carboxypropanoyl))bis(azanediyl))dipentanedioic Acid] | 59% | 94 nM

The remaining lines, values ahead:

PSMA Blkg % (1.0 μM) | Ki | Structure (SMILES)
94% | 28 nM | O=C(O)CC[C@H](NC(=O)N[C@@H](Cc1ccc(Nc2nc(-c3ccc(-n4cc(CCCF)nn4)cc3)cs2)cc1)C(=O)O)C(=O)O [P240]
94% | 0.38 nM | O=C(O)CC[C@H](NC(=O)N[C@@H](Cc1ccc(NC(=O)c2ccc(F)cc2)cc1)C(=O)O)C(=O)O [P241]
99% | 0.07 nM | O=C(O)CC[C@H](NC(=O)N[C@@H](CCCCNc1cc(OCc2cn(CCF)nn2)ccc1[N+](=O)[O-])C(=O)O)C(=O)O [P242, (S)-2-(3-((S)-1-Carboxy-5-((5-((1-(2-fluoroethyl)-1H-1,2,3-triazol-4-yl)methoxy)-2-nitrophenyl)amino)pentyl)ureido)pentanedioic Acid]
5% |  | O=C(O)CC[C@H](NC(=O)C[C@@H](NC(=O)CCNC(=O)Cn1cc(CCCF)nn1)C(=O)O)C(=O)O [P243, (S)-2-((R)-3-Carboxy-3-(3-(2-(4-(3-fluoropropyl)-1H-1,2,3-triazol-1-yl)acetamido)propanamido)-propanamido)pentanedioic Acid]
98% | 0.38 nM | O=C(O)CC[C@H](NC(=O)N[C@@H](CCCCNc1nc(-c2cccc(NC(=O)Cn3cc(CCCF)nn3)c2)cs1)C(=O)O)C(=O)O [P244, (S)-2-(3-((S)-1-Carboxy-5-(4-(3-(2-(4-(3-fluoropropyl)-1H-1,2,3-triazol-1-yl)acetamido)phenyl)thiazol-2-ylamino)pentyl)ureido)pentanedioic Acid]
62% | 156 nM | O=C(O)CC[C@H](NC(=O)C[C@@H](NC(=O)CCNC(=O)c1ccc(-n2cc(CCCF)nn2)cc1)C(=O)O)C(=O)O [P245, (S)-2-((R)-3-Carboxy-3-(3-(4-(4-(3-fluoropropyl)-1H-1,2,3-triazol-1-yl)benzamido)propanamido)-propanamido)pentanedioic Acid]
100% | 0.16 nM | O=C(O)CC[C@H](NC(=O)N[C@@H](CCCCNC(=O)c1cc(C(=O)NCCCC[C@H](NC(=O)N[C@@H](CCC(=O)O)C(=O)O)C(=O)O)cc(-n2cc(CCCF)nn2)c1)C(=O)O)C(=O)O [P246, (2S,2′S)-2,2′-(((((1S,1′S)-((5-(4-(3-Fluoropropyl)-1H-1,2,3-triazol-1-yl)isophthaloyl)bis(azanediyl))bis(1-carboxypentane-5,1-diyl))bis(azanediyl))bis(carbonyl))bis(azanediyl))dipentanedioic Acid]
100% | 0.63 nM | O=C(O)CC[C@H](NC(=O)N[C@@H](CCCCn1c(=O)[nH]c2ccc(OCc3cn(CCF)nn3)cc21)C(=O)O)C(=O)O [P247, (S)-2-(3-((S)-1-Carboxy-5-(6-((1-(2-fluoroethyl)-1H-1,2,3-triazol-4-yl)methoxy)-2-oxo-2,3-dihydro-1H-benzo[d]imidazol-1-yl)pentyl)ureido)pentanedioic Acid]
100% | 3.4 nM | O=C(O)CC[C@H](NC(=O)N[C@@H](Cc1ccc(NC(=O)N2CCN(C(=O)c3ccc(-n4cc(CCCF)nn4)cc3)CC2)cc1)C(=O)O)C(=O)O [P248, (S)-2-(3-((S)-1-Carboxy-2-(4-(4-(4-(4-(3-fluoropropyl)-1H-1,2,3-triazol-1-yl)benzoyl)piperazine-1-carboxamido)phenyl)ethyl)ureido)pentanedioic Acid]
96% | 4.1 nM | O=C(O)CC[C@H](NC(=O)N[C@@H](CC1CCN(C(=S)Nc2ccc(-n3cc(CCCF)nn3)cc2)CC1)C(=O)O)C(=O)O [P250, (S)-2-(3-((S)-1-Carboxy-2-(1-((4-(4-(3-fluoropropyl)-1H-1,2,3-triazol-1-yl)phenyl)carbamothioyl)piperidin-4-yl)ethyl)ureido)pentanedioic Acid]
100% | 0.34 nM | O=C(O)CC[C@H](NC(=O)N[C@@H](CCCCNc1cc(OCCOCCOCCn2cc(CCCF)nn2)ccc1[N+](=O)[O-])C(=O)O)C(=O)O [P251, (S)-2-(3-((S)-1-Carboxy-5-((5-(2-(2-(2-(4-(3-fluoropropyl)-1H-1,2,3-triazol-1-yl)ethoxy)ethoxy)ethoxy)-2-nitrophenyl)amino)pentyl)ureido)pentanedioic Acid]
96% | 0.2 nM | O=C(O)CC[C@H](NC(=O)N[C@@H](Cc1ccc(NC(=O)c2cc(C(=O)O)cc(-n3cc(CCCF)nn3)c2)cc1)C(=O)O)C(=O)O [P253, (S)-2-(3-((S)-1-Carboxy-2-(4-(3-carboxy-5-(4-(3-fluoropropyl)-1H-1,2,3-triazol-1-yl)benzamido)phenyl)ethyl)ureido)pentanedioic Acid]
